Measured values taken from patent publication US8211828B2 (priority 2007, dated 2012).

Tested on: Puccinia recondita
Experiment: Curative activity against brown rust of wheat caused by Puccinia recondita (greenhouse)
Type: in vivo
Settings: single active compound, 0.25 ppm, control 90% infection
Method: The expected efficacies of active compound combinations were determined using Colby's formula (Colby, S. R. “Calculating synergistic and antagonistic responses of herbicide combinations”, Weeds, 15, 20-22, 1967) and compared with the observed efficacies. Colby's formula: E=x+y−x·y/100 • E expected efficacy, expressed in % of the untreated control, when using the mixture of the active compounds A and B at the concentrations a and b; • x efficacy, expressed in % of the untreated control, when using the active compound A at the concentration a; • y efficacy, expressed in % of the untreated control, when using the active compound B at the concentration b. Micro Tests
The active compounds were separately or jointly prepared as a stock solution comprising 25 mg of active compound which was made up to 10 ml using a mixture of acetone and/or dimethyl sulfoxide and the emulsifier Uniperol® EL (wetting agent having emulsifying and dispersing action based on ethoxylated alkylphenols) in a volume ratio of solvent/emulsifier of 99 to 1. The mixture was then made up with water to 100 ml. This stock solution was diluted with the solvent/emulsifier/water mixture described to the concentration of active compound stated below.
Leaves of potted wheat seedlings were inoculated with a spore suspension of brown rust (Puccinia recondita). The pots were then placed in a chamber with high atmospheric humidity (90 to 95%) and 20 to 22° C. for 24 hours. During this time, the spores germinated and the germ tubes penetrated into the leaf tissue. The next day, the infected plants were sprayed to runoff point with the active compound solution described above at the active compound concentration stated below. After the spray coating had dried on, the test plants were cultivated in a greenhouse at temperatures between 20 and 22° C. and at 65 to 70% relative atmospheric humidity for 7 days. The extent of the rust fungus development on the leaves was then determined.
(§1) The visually determined percentages of infected leaf areas were converted into efficacies in % of the untreated control.
The efficacy (E) is calculated as follows using Abbot's formula: Abbot's formula: E=(1−α/β)·100 • α corresponds to the fungicidal infection of the treated plants in % and • β corresponds to the fungicidal infection of the untreated (control) plants in %
An efficacy of 0 means that the infection level of the treated plants corresponds to that of the untreated control plants; an efficacy of 100 means that the treated plants were not infected.

SMILES	Observed effect (%)
Cn1cc(C(=O)Nc2ccccc2-c2cc(F)c(F)c(F)c2)c(C(F)F)n1 [Compound 3-9, N-(3′,4′,5′-trifluorobiphenyl-2-yl)-3-difluoromethyl-1-methyl-1H-pyrazole-4-carboxamide]	0

Same assay, conditions: single active compound, 1 ppm, control 90% infection

SMILES	Observed effect (%)
CCCCCCCCc1c(CC)nc2nc(N)nn2c1N [7-5]	0
CCCCCCCCc1nc2ncnn2c(N)c1CC [7-6]	0
CCc1nc2ncnn2c(N)c1CCC(C)CC(C)(C)C (stereo not shown) [7-8]	0

Tested on: Phytophthora infestans
Experiment: microbe, parasite or virus in culture
Type: cell-based
Settings: 168 h, read-out: Observed effect (%)

SMILES	inhibition of growth at 1 ppm [%]	inhibition of growth at 4 ppm [%]	inhibition of growth at 0.25 ppm [%]	inhibition of growth at 16 ppm [%]
Cc1nc2ncnn2c(N)c1CCC(C)CC(C)(C)C (stereo not shown) [7-3]	31			
CCCCCCCCc1c(C)nc2ncnn2c1N [7-4]		45		
CCCCCCCCc1c(CC)nc2nc(N)nn2c1N [7-5]		73	27	
CCCCCCCCc1c(CCC)nc2ncnn2c1N [7-9]	20	58		
CC(CCc1c(C(F)(F)F)nc2ncnn2c1N)CC(C)(C)C (stereo not shown) [7-12]				66
COc1cc(-c2ccccc2NC(=O)c2cn(C)nc2C(F)(F)F)c(F)cc1Cl [Compound 3-1, N-(2′-fluoro-4′-chloro-5′-methoxybiphenyl-2-yl)-3-trifluoromethyl-1-methyl-1H-pyrazole-4-carboxamide]	0	0		4
Cn1cc(C(=O)Nc2ccccc2-c2cc(F)c(F)c(F)c2)c(C(F)(F)F)n1 [Compound 3-3, N-(3′,4′,5′-trifluorobiphenyl-2-yl)-3-trifluoromethyl-1-methyl-1H-pyrazole-4-carboxamide]	0	0	0	
COc1cc(-c2ccccc2NC(=O)c2cn(C)nc2C(F)F)c(F)cc1Cl [Compound 3-6, N-(2′-fluoro-4′-chloro-5′-methoxybiphenyl-2-yl)-3-difluoromethyl-1-methyl-1H-pyrazole-4-carboxamide]	0	3		18
Cn1cc(C(=O)Nc2ccccc2-c2ccc(F)c(F)c2F)c(C(F)(F)F)n1 [Compound 3-7, N-(2′,3′,4′-trifluorobiphenyl-2-yl)-3-trifluoromethyl-1-methyl-1H-pyrazole-4-carboxamide]	1	4		
Cc1cc(-c2ccccc2NC(=O)c2cn(C)nc2C(F)F)c(F)cc1Cl [Compound 3-8, N-(2′-fluoro-4′-chloro-5′-methylbiphenyl-2-yl)-3-difluoromethyl-1-methyl-1H-pyrazole-4-carboxamide]		10		20
Cn1cc(C(=O)Nc2ccccc2-c2cc(F)c(F)c(F)c2)c(C(F)F)n1 [Compound 3-9, N-(3′,4′,5′-trifluorobiphenyl-2-yl)-3-difluoromethyl-1-methyl-1H-pyrazole-4-carboxamide]		9		
Cn1cc(C(=O)Nc2ccccc2-c2cc(F)c(F)cc2F)c(C(F)F)n1 [Compound 3-10, N-(2′,4′,5′-trifluorobiphenyl-2-yl)-3-difluoromethyl-1-methyl-1H-pyrazole-4-carboxamide]	1	6		
Cn1cc(C(=O)Nc2ccccc2-c2cc(F)c(F)c(F)c2)c(CF)n1 [Compound 3-11, N-(3′,4′,5′-trifluorobiphenyl-2-yl)-3-fluoromethyl-1-methyl-1H-pyrazole-4-carboxamide]	7			9
Cn1cc(C(=O)Nc2ccccc2-c2ccc(F)c(F)c2F)c(CF)n1 [Compound 3-14, N-(2′,3′,4′-trifluorobiphenyl-2-yl)-3-fluoromethyl-1-methyl-1H-pyrazole-4-carboxamide]	3	11		18

Tested on: Puccinia recondita
Experiment: Protective activity against Puccinia recondita on wheat (brown rust of wheat) (greenhouse)
Type: in vivo
Settings: single active compound, 0.25 ppm, control 80% infection
Method: The expected efficacies of active compound combinations were determined using Colby's formula (Colby, S. R. “Calculating synergistic and antagonistic responses of herbicide combinations”, Weeds, 15, 20-22, 1967) and compared with the observed efficacies. Colby's formula: E=x+y−x·y/100 • E expected efficacy, expressed in % of the untreated control, when using the mixture of the active compounds A and B at the concentrations a and b; • x efficacy, expressed in % of the untreated control, when using the active compound A at the concentration a; • y efficacy, expressed in % of the untreated control, when using the active compound B at the concentration b. Micro Tests […]
as §1
The efficacy (E) is calculated as follows using Abbot's formula: Abbot's formula: E=(1−α/β)·100 • α corresponds to the fungicidal infection of the treated plants in % and • β corresponds to the fungicidal infection of the untreated (control) plants in % […]
Leaves of potted wheat seedlings were sprayed to runoff point with an aqueous suspension having the active compound concentration stated below. […] The extent of the rust fungus development on the leaves was then determined visually.

SMILES	Observed effect (%)
Cn1cc(C(=O)Nc2ccccc2-c2cc(F)c(F)c(F)c2)c(C(F)F)n1 [Compound 3-9, N-(3′,4′,5′-trifluorobiphenyl-2-yl)-3-difluoromethyl-1-methyl-1H-pyrazole-4-carboxamide]	50

Same assay, conditions: single active compound, 1 ppm, control 80% infection

SMILES	Observed effect (%)
Cc1nc2ncnn2c(N)c1-c1ccc(Cl)c(Cl)c1 [7-1]	0
